Laboratory results reported in the CheMixHub viscosity set.
Where “and” joins values, the source holds several entries; their conditions need not be identical. Equal entries are not always repeated. ± gives the uncertainty stated by the source.

Assay: xn = mol fraction of the nth substance listed

C=Cn1cc[n+](CC(N)=O)c1.O=S(=O)([N-]S(=O)(=O)C(F)(F)F)C(F)(F)F + CC#N
viscosity [mPa·s], 100 kPa
Settings	298.15 K	303.15 K	308.15 K	313.15 K	318.15 K	323.15 K
x1 = 0.1	–	9.97 ± 2	9.16 ± 1.9	8.17 ± 1.6	7.74 ± 1.6	7.02 ± 1.4
x1 = 0.201	75.29 ± 15	68.64 ± 14	59.58 ± 12	50.56 ± 10	–	–
x1 = 0.3026	–	246.5 ± 51	–	–	–	–
x1 = 0.4011	805.9 ± 180	683.3 ± 150	549.2 ± 120	–	–	–

Cc1cccc(O)c1 + c1ccccc1
308.15 K, 101 kPa
Settings	viscosity [mPa·s]
x1 = 0.1019	0.6327 ± 0.0055
x1 = 0.1702	0.7272 ± 0.0062
x1 = 0.305	0.9887 ± 0.0082
x1 = 0.4025	1.282 ± 0.01
x1 = 0.5186	1.693 ± 0.014
x1 = 0.6441	2.436 ± 0.02
x1 = 0.768	3.648 ± 0.03
x1 = 0.8611	4.963 ± 0.041
x1 = 0.9525	6.937 ± 0.056

CCCCC(CC)COP(=O)(O)OCC(CC)CCCC (stereo not given) + CCC(=O)O
303.15 K, 101 kPa
Settings	viscosity [mPa·s]
x1 = 0.0668	1.394 ± 0.067
x1 = 0.1278	1.986 ± 0.092
x1 = 0.2286	3.022 ± 0.14
x1 = 0.3182	4.286 ± 0.19
x1 = 0.4677	6.968 ± 0.28
x1 = 0.5096	7.792 ± 0.31
x1 = 0.5879	9.486 ± 0.37
x1 = 0.6584	11.01 ± 0.42
x1 = 0.7068	12.08 ± 0.46
x1 = 0.7594	13.3 ± 0.5
x1 = 0.814	14.5 ± 0.54
x1 = 0.8783	16.08 ± 0.59
x1 = 0.9378	17.59 ± 0.65

[Br-].[Br-].[Br-].[Sb+3] + CNc1ccccc1
323.15 K, 101 kPa
Settings	viscosity [mPa·s]
x1 = 0.25	21.03 ± 0.81
x1 = 0.333	107.7 ± 3.6
x1 = 0.4	507 ± 14
x1 = 0.45	1423 ± 33
x1 = 0.5	2867 ± 58
x1 = 0.53	3472 ± 68
x1 = 0.55	3692 ± 69
x1 = 0.57	3331 ± 63
x1 = 0.6	2686 ± 50
x1 = 0.65	1275 ± 24

OC[C@@H](O)[C@@H](O)[C@H](O)[C@H](O)CO + O
viscosity, 101 kPa
Settings	298.15 K	303.15 K	308.15 K	313.15 K	318.15 K	323.15 K
x1 = 0.002	–	0.837 ± 0.007 mPa·s	0.748 ± 0.006 mPa·s	0.674 ± 0.006 mPa·s	–	0.565 ± 0.005 mPa·s
x1 = 0.003588	0.9818 ± 0.0078 mPa·s	–	–	–	–	–
x1 = 0.004	–	0.872 ± 0.008 mPa·s	0.777 ± 0.007 mPa·s	0.705 ± 0.006 mPa·s	0.645 ± 0.006 mPa·s	0.587 ± 0.005 mPa·s
x1 = 0.005	–	0.909 ± 0.008 mPa·s	0.814 ± 0.007 mPa·s	0.732 ± 0.007 mPa·s	0.671 ± 0.006 mPa·s	0.61 ± 0.006 mPa·s
x1 = 0.007	–	0.941 ± 0.009 mPa·s	0.845 ± 0.008 mPa·s	0.757 ± 0.007 mPa·s	0.692 ± 0.006 mPa·s	0.626 ± 0.006 mPa·s
x1 = 0.007158	1.085 ± 0.0086 mPa·s	–	–	–	–	–
x1 = 0.009	–	0.983 ± 0.009 mPa·s	0.883 ± 0.008 mPa·s	0.788 ± 0.007 mPa·s	0.722 ± 0.007 mPa·s	0.653 ± 0.006 mPa·s
x1 = 0.01	–	1.069 ± 0.01 mPa·s	0.914 ± 0.009 mPa·s and 0.949 ± 0.009 mPa·s and 0.992 ± 0.01 mPa·s	0.821 ± 0.008 mPa·s and 0.886 ± 0.009 mPa·s	0.75 ± 0.007 mPa·s and 0.777 ± 0.008 mPa·s and 0.81 ± 0.008 mPa·s	0.673 ± 0.007 mPa·s and 0.697 ± 0.007 mPa·s and 0.731 ± 0.007 mPa·s
x1 = 0.01069	1.191 ± 0.0093 mPa·s	–	–	–	–	–
x1 = 0.01422	1.311 ± 0.01 mPa·s	–	–	–	–	–
x1 = 0.01769	1.442 ± 0.011 mPa·s	–	–	–	–	–
x1 = 0.018	–	1.217 ± 0.013 mPa·s	1.088 ± 0.011 mPa·s	0.966 ± 0.01 mPa·s	0.876 ± 0.009 mPa·s	0.786 ± 0.008 mPa·s
x1 = 0.02	–	1.17 ± 0.012 mPa·s	1.038 ± 0.011 mPa·s	0.928 ± 0.01 mPa·s	0.84 ± 0.009 mPa·s	0.756 ± 0.008 mPa·s

C[N+](=O)[O-] + COC(C)=O
298.15 K, 101 kPa
Settings	viscosity [mPa·s]
x1 = 0.1415	0.4094 ± 0.041
x1 = 0.271	0.4445 ± 0.045
x1 = 0.3891	0.4757 ± 0.048
x1 = 0.498	0.5048 ± 0.051
x1 = 0.5977	0.5313 ± 0.054
x1 = 0.6903	0.5553 ± 0.056
x1 = 0.7763	0.5776 ± 0.058
x1 = 0.8562	0.5968 ± 0.06
x1 = 0.9303	0.6147 ± 0.062

CCCCC(CC)COP(=O)(O)OCC(CC)CCCC (stereo not given) + O=[N+]([O-])c1ccccc1
Settings	viscosity [mPa·s]
303.15 K, 100 kPa, x1 = 0.9387	17.75 ± 0.76

C[N+](=O)[O-] + CC#N
101 kPa
Settings	viscosity [mPa·s]
298.15 K, x1 = 0.107	0.3665 ± 0.0092
298.15 K, x1 = 0.206	0.389 ± 0.0098
298.15 K, x1 = 0.301	0.4121 ± 0.01
298.15 K, x1 = 0.398	0.4366 ± 0.011
298.15 K, x1 = 0.502	0.4646 ± 0.012
298.15 K, x1 = 0.598	0.4917 ± 0.012
298.15 K, x1 = 0.7	0.5223 ± 0.013
298.15 K, x1 = 0.792	0.5508 ± 0.014
298.15 K, x1 = 0.895	0.5844 ± 0.015
298.15 K, x2 = 0.1433	0.569 ± 0.006
298.15 K, x2 = 0.3891	0.495 ± 0.006
298.15 K, x2 = 0.39	0.496 ± 0.005
298.15 K, x2 = 0.403	0.492 ± 0.005
298.15 K, x2 = 0.408	0.49 ± 0.005
298.15 K, x2 = 0.598	0.439 ± 0.005
298.15 K, x2 = 0.698	0.413 ± 0.005
298.15 K, x2 = 0.729	0.405 ± 0.004
298.15 K, x2 = 0.739	0.403 ± 0.004
298.15 K, x2 = 0.776	0.395 ± 0.005
298.15 K, x2 = 0.9346	0.359 ± 0.005
308.15 K, x2 = 0.1433	0.52 ± 0.006
308.15 K, x2 = 0.3891	0.454 ± 0.005
308.15 K, x2 = 0.598	0.404 ± 0.005
308.15 K, x2 = 0.776	0.364 ± 0.005
308.15 K, x2 = 0.9346	0.333 ± 0.005
313.15 K, x1 = 0.107	0.3169 ± 0.0079
313.15 K, x1 = 0.206	0.3355 ± 0.0084
313.15 K, x1 = 0.301	0.3546 ± 0.0089
313.15 K, x1 = 0.398	0.3751 ± 0.0094
313.15 K, x1 = 0.502	0.3985 ± 0.01
313.15 K, x1 = 0.598	0.4211 ± 0.011
313.15 K, x1 = 0.7	0.4465 ± 0.011
313.15 K, x1 = 0.792	0.4697 ± 0.012
313.15 K, x1 = 0.895	0.4974 ± 0.012
318.15 K, x2 = 0.1433	0.469 ± 0.005
318.15 K, x2 = 0.3891	0.411 ± 0.005
318.15 K, x2 = 0.598	0.367 ± 0.005
318.15 K, x2 = 0.776	0.333 ± 0.005
318.15 K, x2 = 0.9346	0.305 ± 0.004

CCCCC(CC)COP(=O)(O)OCC(CC)CCCC (stereo not given) + CC(=O)O
303.15 K, 101 kPa
Settings	viscosity [mPa·s]
x1 = 0.0796	1.574 ± 0.075
x1 = 0.1382	2.292 ± 0.11
x1 = 0.2186	3.386 ± 0.15
x1 = 0.3103	4.872 ± 0.21
x1 = 0.3968	6.604 ± 0.27
x1 = 0.4788	8.198 ± 0.33
x1 = 0.5297	9.118 ± 0.36
x1 = 0.6234	11.09 ± 0.42
x1 = 0.6891	12.58 ± 0.47
x1 = 0.7384	13.67 ± 0.51
x1 = 0.8068	15.2 ± 0.56
x1 = 0.8905	16.88 ± 0.62
x1 = 0.9592	18.49 ± 0.68

C[Si]1(C)O[Si](C)(C)O[Si](C)(C)O[Si](C)(C)O[Si](C)(C)O[Si](C)(C)O1 + C[Si](C)(C)O[Si](C)(C)O[Si](C)(C)O[Si](C)(C)C
Settings	viscosity [mPa·s]
298.15 K, 101 kPa, x2 = 0.457	3.47 ± 0.095

CC(=O)c1ccc(C)cc1 + CCNc1ccccc1
303.15 K, 100 kPa
Settings	viscosity [mPa·s]
x2 = 0.0838	1.587 ± 0.021
x2 = 0.1427	1.592 ± 0.021
x2 = 0.2179	1.601 ± 0.021
x2 = 0.2904	1.608 ± 0.021
x2 = 0.3608	1.616 ± 0.021
x2 = 0.4284	1.625 ± 0.021
x2 = 0.4942	1.635 ± 0.021
x2 = 0.5577	1.645 ± 0.021
x2 = 0.6194	1.656 ± 0.021
x2 = 0.6889	1.67 ± 0.021
x2 = 0.7467	1.683 ± 0.022
x2 = 0.8128	1.697 ± 0.022
x2 = 0.9072	1.718 ± 0.022
